This note sets out measurements from US20220087996A1, “Histone acetylase p300 inhibitor and use thereof” (HINOVA PHARMACEUTICALS INC., priority 2018, published 2022).

Like-named read-outs stand apart in the source and are kept apart here.

Test [1] addresses T1, histone acetylase p300 (Homo sapiens, UniProt Q09472).
T1 construct: purchased BPS
Kind of test: Inhibitory activity on histone acetylase p300 (radioisotope FlashPlate). It is filed as biochemical. The settings on record: enzyme 0.2 nM, peptide substrate 600 nM, [3H]-Ac-CoA 250 nM; read-out: IC50 against P300. The source says: Using the radioisotope FlashPlate technology, the half inhibitory concentration (IC50) of the compound according to the present invention was detected against histone acetylase p300 (purchased from BPS). […] Under the catalysis of histone acetylase p300, [3H]—Ac group in the isotope-labeled [3H]-Ac-CoA was transferred to the biotinylated histone polypeptide substrate (purchased from GL Biochem Ltd.), and then the biotinylated histone peptide substrate bound to the streptavidin on the FlashPlate board, so that the isotope was close enough to the FlashPlate board. Thus, the radiation energy of isotope could convert the scintillation fluid coated on the FlashPlate board into photons, that was able to be detected. Detailed procedures were as follows:
• 1× reaction buffer: 50 mM Tris-HCl, pH 7.5; 0.01% Tween-20 • Reaction stop solution: 750 μM Ac-CoA solution
Each test compound was dissolved into 10 mM with 100% DMSO, and then each compound was diluted to the desired concentration in Echo 384-well plate. […] 200 nl of 100% DMSO was transferred into the well as the negative control.
p300 was added to 1× reaction buffer to form a 2× enzyme solution (the final concentration of enzyme being 0.2 nM).
The peptide substrate and [3H]-Ac-CoA were added to the 1-fold reaction buffer, to form a 2-fold substrate solution (the final concentration of the substrate being 600 nM and 250 nM, respectively).
10 μl of 2-fold enzyme solution was added to the wells of 384-well reaction plate. […] The plate was centrifuged at 1000 rpm for 1 min and incubated at room temperature for 15 min.
10 μl of 2-fold substrate solution was added to each well of 384-well reaction plate. The plate was centrifuged at 1000 rpm for 1 min, and then reacted at 25° C. for 60 min.
10 μl of reaction stop solution was added to each well of 384-well reaction plate to stop the reaction. 25 μL solution was collected from each well of the test plate and transferred to Flashplate, that was placed at room temperature for 1 h. Then, Flashplate plate was washed three times with 0.1% Tween-20 solution.
4) Reading Data with MicroBeta 2
The data were copied from Microbeta 2. […] The maximum value is the conversion rate of the control DMSO, and the minimum value is the conversion rate of the control without enzyme activity.
The data were imported into Graph Pad Prism5, and the formula “log(inhibitor) vs. response−Variable slope” was used to perform curve fitting, to obtain the half inhibitory concentration (IC50).

In test [2] the test system is CWR22RV1 cells. The test is described as follows: Inhibition of proliferation of CWR22RV1 cells (CCK-8). The settings on record: 6 days culture. It is filed as cell-based, human. A digest of the protocol:
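CWR22RV1 cells (1500/well) were exposed to 9 three-fold compound concentrations (top final 10 μM, 0.1% DMSO) for 6 days. CCK-8 was added for 2.5 h, and absorbance was read at 450 nm. IC50 was fitted with a dose-response-inhibition equation.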

The mark [3] stands for this setting: Homo sapiens, CWR22Rv1, 144 h, read-out: IC50 against CWR22RV1 cells.
[4] abbreviates: Homo sapiens, CWR22Rv1, 144 h, read-out: IC50 against CWR22RV1 cells (text).

T1 sequence (Q09472 whole entry): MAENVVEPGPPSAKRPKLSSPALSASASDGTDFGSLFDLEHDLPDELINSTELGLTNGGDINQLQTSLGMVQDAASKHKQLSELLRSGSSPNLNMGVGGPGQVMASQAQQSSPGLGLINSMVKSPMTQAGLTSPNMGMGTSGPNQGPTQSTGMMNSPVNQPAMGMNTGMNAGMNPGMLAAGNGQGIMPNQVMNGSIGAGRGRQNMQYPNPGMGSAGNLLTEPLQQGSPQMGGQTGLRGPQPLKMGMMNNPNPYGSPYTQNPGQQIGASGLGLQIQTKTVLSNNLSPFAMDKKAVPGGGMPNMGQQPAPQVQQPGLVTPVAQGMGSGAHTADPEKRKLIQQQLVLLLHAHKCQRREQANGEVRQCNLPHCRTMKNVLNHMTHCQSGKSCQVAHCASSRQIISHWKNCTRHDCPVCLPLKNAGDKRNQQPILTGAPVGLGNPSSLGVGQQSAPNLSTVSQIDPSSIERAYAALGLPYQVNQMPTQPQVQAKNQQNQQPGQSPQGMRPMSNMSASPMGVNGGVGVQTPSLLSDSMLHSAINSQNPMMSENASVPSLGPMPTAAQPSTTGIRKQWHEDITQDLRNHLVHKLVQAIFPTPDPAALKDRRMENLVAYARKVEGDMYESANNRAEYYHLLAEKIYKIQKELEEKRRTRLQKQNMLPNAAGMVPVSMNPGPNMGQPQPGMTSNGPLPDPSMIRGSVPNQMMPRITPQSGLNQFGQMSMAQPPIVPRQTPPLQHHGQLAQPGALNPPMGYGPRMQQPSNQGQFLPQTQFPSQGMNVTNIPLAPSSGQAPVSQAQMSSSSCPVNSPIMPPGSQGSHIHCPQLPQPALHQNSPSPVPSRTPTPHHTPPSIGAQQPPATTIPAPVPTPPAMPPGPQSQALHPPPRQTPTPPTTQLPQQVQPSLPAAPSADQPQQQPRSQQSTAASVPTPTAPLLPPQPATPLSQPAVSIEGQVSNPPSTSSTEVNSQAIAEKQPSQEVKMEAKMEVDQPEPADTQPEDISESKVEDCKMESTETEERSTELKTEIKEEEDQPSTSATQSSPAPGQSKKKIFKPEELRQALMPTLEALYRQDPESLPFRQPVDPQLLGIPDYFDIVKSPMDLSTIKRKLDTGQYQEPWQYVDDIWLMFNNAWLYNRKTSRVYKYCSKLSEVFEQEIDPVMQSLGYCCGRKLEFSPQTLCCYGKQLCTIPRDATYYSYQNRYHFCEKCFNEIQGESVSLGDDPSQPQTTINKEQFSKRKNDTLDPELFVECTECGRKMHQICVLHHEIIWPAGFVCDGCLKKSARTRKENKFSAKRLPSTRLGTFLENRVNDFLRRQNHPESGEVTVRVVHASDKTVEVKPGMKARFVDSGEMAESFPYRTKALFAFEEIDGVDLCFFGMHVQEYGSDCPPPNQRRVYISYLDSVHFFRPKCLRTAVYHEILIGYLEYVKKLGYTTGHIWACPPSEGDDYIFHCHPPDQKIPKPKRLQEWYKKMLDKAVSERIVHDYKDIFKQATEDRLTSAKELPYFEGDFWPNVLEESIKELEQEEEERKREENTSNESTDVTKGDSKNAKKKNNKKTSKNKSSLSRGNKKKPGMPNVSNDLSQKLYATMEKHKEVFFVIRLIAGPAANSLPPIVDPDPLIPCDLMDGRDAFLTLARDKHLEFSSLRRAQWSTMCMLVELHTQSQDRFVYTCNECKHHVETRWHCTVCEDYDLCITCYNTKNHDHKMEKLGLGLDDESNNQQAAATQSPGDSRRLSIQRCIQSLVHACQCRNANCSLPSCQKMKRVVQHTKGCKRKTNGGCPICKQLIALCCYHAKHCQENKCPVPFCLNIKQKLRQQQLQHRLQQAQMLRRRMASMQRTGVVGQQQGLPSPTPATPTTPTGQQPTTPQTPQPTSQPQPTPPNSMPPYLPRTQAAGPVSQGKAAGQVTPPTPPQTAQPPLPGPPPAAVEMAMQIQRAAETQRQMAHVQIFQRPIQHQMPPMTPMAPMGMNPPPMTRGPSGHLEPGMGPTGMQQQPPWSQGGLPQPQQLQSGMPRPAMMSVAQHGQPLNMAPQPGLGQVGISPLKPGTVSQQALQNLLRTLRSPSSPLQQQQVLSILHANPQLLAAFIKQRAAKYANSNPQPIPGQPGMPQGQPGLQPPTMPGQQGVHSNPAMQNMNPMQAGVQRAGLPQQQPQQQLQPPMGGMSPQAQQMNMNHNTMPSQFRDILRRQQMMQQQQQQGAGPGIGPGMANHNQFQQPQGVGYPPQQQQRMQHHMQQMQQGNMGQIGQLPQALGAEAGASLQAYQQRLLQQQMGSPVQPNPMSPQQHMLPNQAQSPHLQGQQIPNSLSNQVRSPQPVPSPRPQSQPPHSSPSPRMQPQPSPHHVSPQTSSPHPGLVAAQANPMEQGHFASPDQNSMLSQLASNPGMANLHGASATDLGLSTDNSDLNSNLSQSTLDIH

On to `CCC1CC[C@@H](C2CCC(F)(F)CC2)N1C(=O)CN1C(=O)O[C@@]2(CCc3cc(NC(=O)NC)ccc32)C1=O` (stereo in doubt) [Example 212, 1-((R)-3′-(2-((2S,5R)-2-(4,4-difluorocyclohexyl)-5-ethyl-pyrrolidin-1-yl)-2-oxoethyl)-2′,4′-dioxo-2,3-dihydrospiro[indene-1,5′-oxazolidine]-5-yl)-3-methylurea], for which the IC50 was 0.0093 µM in test [1], at most 0.5 µM in test [2] (setting [3]) and at most 0.5 µM in test [2] (setting [4]).
Consider `CNC(=O)Nc1ccc2c(c1)CC[C@@]21OC(=O)N(CC(=O)N2C(C3CC3)CC[C@H]2c2ccc(F)cc2)C1=O` (stereo in doubt) [Example 380, 1-((R)-3′-(2-((2S,5S)-2-cyclopropyl-5-(4-fluorophenyl)pyrrolidin-1-yl)-2-oxoethyl)-2′,4′-dioxo-2,3-dihydrospiro[indene-1,5′-oxazolidine]-5-yl)-3-methylurea], for which the IC50 in test [1] is 0.0051 µM; in test [2] (setting [3]), at most 0.5 µM; in test [2] (setting [4]), at most 0.5 µM.
Regarding `CNC(=O)Nc1ccc2c(c1)CC[C@@]21OC(=O)N(CC(=O)N2[C@@H](C(C)C)CC[C@H]2c2ccc(F)cc2)C1=O` [Compound 48], the IC50 in test [1] is 0.0045 µM.
Turning to `CNC(=O)Nc1ccc2c(c1)CC[C@@]21OC(=O)N(CC(=O)N2[C@@H](C)CC[C@H]2c2ccc(F)cc2)C1=O` [Example 14, 1-((R)-3′-(2-((2S,5S)-2-(4-fluorophenyl)-5-methylpyrrolidin-1-yl)-2-oxoethyl)-2′,4′-dioxo2,3-dihydrospiro[indene-1,5′-oxazolidine]-5-yl)-3-methylurea], the IC50 in test [1] is 0.0057 µM; in test [2] (setting [3]), at most 0.5 µM; in test [2] (setting [4]) it was at most 0.5 µM.
Turning to `CNC(=O)Nc1ccc2c(c1)CC[C@@]21OC(=O)N(CC(=O)N2[C@H](C)CC[C@@H]2c2ccc(F)cc2)C1=O` [Example 17, 1-((R)-3′-(2-((2R,5R)-2-(4-fluorophenyl)-5-methylpyrrolidin-1-yl)-2-oxoethyl)-2′,4′-dioxo-2,3-dihydrospiro[indene-1,5′-oxazolidine]-5-yl)-3-methylurea], the results for the IC50 in test [1] and in test [2] (setting [3]) were 3.6 µM and above 2 µM, respectively.
With `CNC(=O)Nc1ccc2c(c1)CC[C@@]21OC(=O)N(CC(=O)N2C(c3ccc(F)cc3C)CC[C@H]2C)C1=O` (some centres unmarked) [Example 21], the IC50 in test [1] is 0.017 µM; in test [2] (read-out: IC50 against CWR22RV1 cells), at most 0.5 µM.
Turning to `CC[C@H]1CC[C@@H](c2ccc(F)cc2)N1C(=O)CN1C(=O)O[C@@]2(CCc3cc(NC(=O)NC)ccc32)C1=O` [Example 43, 1-((R)-3′-(2-((2S,5S)-2-ethyl-5-(4-fluorophenyl)pyrrolidin-1-yl)-2-oxoethyl)-2′,4′-dioxo-2,3-dihydrospiro[indene-1,5′-oxazolidine]-5-yl)-3-methylurea], the IC50 was 0.0031 µM in test [1], at most 0.5 µM in test [2] (setting [3]) and at most 0.5 µM in test [2] (setting [4]).
Take `CNC(=O)Nc1ccc2c(c1)CC[C@@]21OC(=O)N(CC(=O)N2C(C)CCC2C2CCCCC2)C1=O` (stereo partly drawn) [Example 96, 1-((1R)-3′-(2-(2-cyclohexyl-5-methylpyrrolidin-1-yl)-2-oxoethyl)-2′,4′-dioxo-2,3-dihydrospiro[indene-1,5′-oxazolidine]-5-yl)-3-methylurea]: the IC50 was 0.0075 µM in test [1] and at most 0.5 µM in test [2] (setting [3]).
Regarding `CNC(=O)Nc1ccc2c(c1)C1(CC1)CC21OC(=O)N(CC(=O)N(Cc2ccc(F)cc2)[C@@H](C)C(F)(F)F)C1=O` (stereo partly drawn) [Example 98, 2-(5-(3-methylureido)-2′,4′-dioxo-2,3-dihydrospiro[cyclopropane-indene-1,5′-oxazole]-3′-yl)-N-(4-fluorobenzyl)-N—((S)-1,1,1-trifluoropropan-2-yl)acetamide], the IC50 in test [1] was 0.026 µM; in test [2] (setting [3]), 0.5 to 2 µM.
On to `CC(=O)Nc1ccc2c(c1)CC[C@@]21OC(=O)N(CC(=O)N2[C@@H](C)CC[C@H]2c2ccc(F)cc2)C1=O` [Example 114, N—((R)-3′-(2-((2S,5S)-2-(4-fluorophenyl)-5-methylpyrrolidin-1-yl)-2-oxoethyl)-2′,4′-dioxo-2,3-dihydrospiro[indene-1,5′-oxazolidine]-5-yl)acetamide], for which the IC50 in test [1] is 0.026 µM; in test [2] (setting [3]), 0.5 to 2 µM.
